US20230159453A1 (COCRYSTAL PHARMA, INC., priority 2020, published 2023)

biological target: SARS2 protease (Severe acute respiratory syndrome coronavirus 2, UniProt P0DTD1); test: SARS-CoV-2 protease inhibition assay (SARS2 FRET protease assay); type: biochemical; conditions: SARS-CoV-2 protease 25 nM, FRET, peptide substrate 1.3 μM, 30 minutes at 30° C., compounds 20 μM to 1.0 nM; read-out: IC50

Row | Structure (SMILES) | IC50 [nM]
1 | O=CC(CC1CC(Cc2ccccc2)NC1=O)NC(=O)[C@H](CC1CCCCC1)NC(=O)OCc1cccc(Cl)c1 (stereo partly drawn) [Compound C52, 3-Chlorobenzyl ((2S)-1-((1-(5-benzyl-2-oxopyrrolidin-3-yl)-3-oxopropan-2-yl)amino)-3-cyclohexyl-1-oxopropan-2-yl)carbamate] | 500
2 | CC(C)C[C@H](NC(=O)OC(Cc1ccccc1)c1ccccc1)C(=O)N[C@@H](C[C@@H]1CCNC1=O)C(O)S(=O)(=O)O (stereo partly drawn) [Compound C53, (2S)-2-((2S)-2-(((1,2-Diphenylethoxy)carbonyl)amino)-4-methylpentanamido)-1-hydroxy-3-((S)-2-oxopyrrolidin-3-yl)propane-1-sulfonate] | 40
3 | CC(=O)N1CCC2(CC1)CC(CC(C=O)NC(=O)[C@H](CC(C)C)NC(=O)OCc1cccc(Cl)c1)C(=O)N2 (stereo partly drawn) [Compound C54, 3-Chlorobenzyl ((2S)-1-((1-(8-acetyl-2-oxo-1,8-diazaspiro[4.5]decan-3-yl)-3-oxopropan-2-yl)amino)-4-methyl-1-oxopentan-2-yl)carbamate] | 100
4 | CC(C)C[C@H](NC(=O)OC1(Cc2ccccc2)CCC1)C(=O)N[C@H](C=O)C[C@@H]1CCNC1=O [Compound C56, 1-benzylcyclobutyl ((S)-4-methyl-1-oxo-1-(((S)-1-oxo-3-((S)-2-oxopyrrolidin-3-yl)propan-2-yl)amino)pentan-2-yl)carbamate] | 600
5 | CC(C)C[C@H](NC(=O)OC(C)(C)Cc1ccccc1)C(=O)N[C@@H](C[C@@H]1CCNC1=O)C(O)S(=O)(=O)O (stereo partly drawn) [Compound C57, (2S)-1-hydroxy-2-((S)-4-methyl-2-((((2-methyl-1-phenylpropan-2-yl)oxy)carbonyl)amino)pentanamido)-3-((S)-2-oxopyrrolidin-3-yl)propane-1-sulfonate] | 800
6 | CC(C)C[C@H](NC(=O)OC1CCN(C(=O)OC(C)(C)C)c2ccccc21)C(=O)N[C@@H](C[C@@H]1CCNC1=O)C(O)S(=O)(=O)O (stereo partly drawn) [Compound C58, (2S)-2-((2S)-2-((((1-(tert-butoxycarbonyl)-1,2,3,4-tetrahydroquinolin-4-yl)oxy)carbonyl)amino)-4-methylpentanamido)-1-hydroxy-3-((S)-2-oxopyrrolidin-3-yl) propane-1-sulfonate] | 100
7 | CC(C)C[C@H](NC(=O)OC1CCN(C(=O)OC(C)(C)C)c2ccccc21)C(=O)N[C@H](C=O)C[C@@H]1CCNC1=O (stereo partly drawn) [Compound C59, Tert-butyl 4-((((S)-4-methyl-1-oxo-1-(((S)-1-oxo-3-((S)-2-oxopyrrolidin-3-yl)propan-2-yl)amino)pentan-2-yl)carbamoyl)oxy)-3,4-dihydroquinoline-1(2H)-carboxylate] | 100
8 | CC(C)C[C@H](NC(=O)OC1(Cc2cccc(OCc3ccccc3)c2)CC1)C(=O)N[C@H](C=O)C[C@@H]1CCNC1=O [Compound C60, 1-(3-(Benzyloxy)benzyl)cyclopropyl ((S)-4-methyl-1-oxo-1-(((S)-1-oxo-3-((S)-2-oxopyrrolidin-3-yl)propan-2-yl)amino)pentan-2-yl)carbamate] | 600
9 | CC(C)C[C@H](NC(=O)OC1(Cc2cccnc2)CC1)C(=O)N[C@@H](C[C@@H]1CCNC1=O)C(O)S(=O)(=O)O (stereo partly drawn) [Compound C62, (2S)-1-Hydroxy-2-((S)-4-methyl-2-(((1-(pyridin-3-ylmethyl)cyclopropoxy)carbonyl)amino)pentanamido)-3-((S)-2-oxopyrrolidin-3-yl)propane-1-sulfonate] | 4600
10 | CC(C)C[C@H](NC(=O)OC1(Cc2ccccc2)CCC1)C(=O)N[C@@H](C[C@@H]1CCNC1=O)C(O)S(=O)(=O)O (stereo partly drawn) [Compound C63, (2S)-2-((S)-2-(((1-Benzylcyclobutoxy)carbonyl)amino)-4-methylpentanamido)-1-hydroxy-3-((S)-2-oxopyrrolidin-3-yl)propane-1-sulfonate] | 1600
